Our source for the EC50 values is patent US10730863B2, “Bridged bicyclic compounds as farnesoid X receptor modulators” (BRISTOL-MYERS SQUIBB COMPANY, priority 2017, dated 2020).

Each structure is given as a SMILES string.

The target of this assay is FXR (Homo sapiens (Human), UniProt Q96RI1). Briefly: transient human FXR/Gal4-luciferase reporter assay. To be noted: Gal4-hFXR LBD fusion in HEK293 reporter cells; relative to 8 μM GW-4064. It is filed as cell-based. On the procedure: The exemplified compounds of the present invention were tested in the transient human FXR/Gal4-luciferase reporter assay, and assay results were described in the EXAMPLES section hereinbefore.
Sequence of FXR (Q96RI1 262-486): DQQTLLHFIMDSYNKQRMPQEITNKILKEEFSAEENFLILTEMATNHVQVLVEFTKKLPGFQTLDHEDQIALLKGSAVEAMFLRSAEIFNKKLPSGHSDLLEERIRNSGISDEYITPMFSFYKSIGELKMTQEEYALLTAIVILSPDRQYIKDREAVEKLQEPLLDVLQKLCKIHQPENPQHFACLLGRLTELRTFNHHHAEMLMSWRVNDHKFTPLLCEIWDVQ
A Gal4-hFXR fusion construct reporter system was used as the primary assay to characterize compound activity. A construct including 5 copies of the Gal4 promoter response element upstream of a firefly luciferase reporter cDNA was stably expressed in HEK293 cells. This reporter cell line was maintained in Dulbecco's Modified Eagle's medium (DMEM; Gibco) supplemented with 1% penicillin-streptomycin (P/S) solution, 500 μg/ml Zeocin and 10% charcoal/dextran-treated fetal bovine serum (cs-FBS) at 37° C. in a humidified 5% CO2 atmosphere. Another plasmid was constructed in which the human cytomegalovirus promoter in the pcDNA3.1 vector directs the expression of the cDNA encoding a fusion protein comprised of the DNA binding domain from the Gal4 transcription factor fused to the ligand binding domain from human FXR.
The day prior to transfection, the reporter cells in culture are detached from the plate with trypsin and plated into a T75 flask at a sufficient density to achieve approximately 90% confluence the next morning. The transfection reagents are prepared by separately diluting 25 μg of the pcDNA3.1-Gal4-FXR plasmid into 1.87 mL of Opti-MEM (Thermo-Fisher), and 40 μL of Lipofectamine 2000 (Thermo-Fisher) into 1.87 mL of Opti-MEM, and then adding the diluted DNA solution into the diluted Lipofectamine 2000 solution and incubating at room temperature for 15-20 minutes. The mixture is further diluted with 10 mL of a solution comprised of DMEM, 10% cs-FBS, and 1% P/S immediately prior to transferring to the cells. The maintenance culture media is aspirated from the cells and the final transfection mixture is added before the cells are incubated overnight at 37° C. in a humidified 5% CO2 atmosphere. This protocol can be scaled up, and the transiently transfected cells can be cryopreserved in an assay-ready format.
For compound testing, 100 nL of the compounds (serial dilutions in DMSO) are dispensed with an Echo acoustic dispenser (Labcyte) into the wells of a Corning/Costar clear bottom 384-well white plate. The transfected cells are harvested, counted, and diluted such that 10-25,000 cells in 25 μL are plated into each well of the 384-well compound assay plate. The compound-treated cells are incubated overnight at 37° C. in a humidified 5% CO2 atmosphere. The next morning 25 μL of Steady-Glo (Promega) are added to each well of the plate, the mixture is incubated for 15 min. with shaking, and luminescence is measured on an Envision (Perkin Elmer) plate reader. Background counts from cells treated with DMSO alone are subtracted from all raw counts, and the corrected values are converted to a percentage of the control response attained with 8 μM GW-4064.
For orientation: A reporter such as luciferase makes a cellular process visible.
In general, EC50 refers to the concentration that produces a half-maximal response. A low value points to greater potency. Turning to `COCCCOc1nc(C(=O)O)cc2cc(C#CC34CCC(OCc5c(-c6c(Cl)cncc6Cl)noc5C5CC5)(CC3)CC4)ccc12` [Example 549], the EC50 is 126 nM.

With `O=C(O)c1cc2ccc(C#CC34CCC(OCc5c(-c6c(Cl)cncc6Cl)noc5C5CC5)(CC3)CC4)cc2c(Nc2ccccc2)n1` [Example 550], the midpoint of the response, the EC50, lay at 186 nM. The EC50 values of the last two molecules are within 1.5-fold of each other.

Regarding `O=C(O)c1cc2ccc(C#CC34CCC(OCc5c(-c6c(Cl)cncc6Cl)noc5C5CC5)(CC3)CC4)cc2c(NC2CC2)n1` [Example 551], the midpoint of the response, the EC50, lay at 406 nM. Compared with the last molecule, the EC50 is about 2.2-fold higher.

In turn, `O=C(O)c1cc2ccc(C#CC34CCC(OCc5c(-c6c(Cl)cncc6Cl)noc5C5CC5)(CC3)CC4)cc2c(N2CC(O)C2)n1` [Example 552] displayed an EC50 of 100 nM.

`O=C(O)c1cc2ccc(C#CC34CCC(OCc5c(-c6c(Cl)cncc6Cl)noc5C5CC5)(CC3)CC4)cc2c(N2CC(F)C2)n1` [Example 553] had an EC50 of 12 nM. This EC50 is about 8.3-fold lower than that of the molecule before.

As to `O=C(O)COc1ccc(C#CC23CCC(OCc4c(-c5c(Cl)cncc5Cl)noc4C4CC4)(CC2)CC3)c(F)c1` [Example 554], a half-maximal effect (EC50) was put at 3160 nM. Against the preceding molecule, the EC50 is about 260-fold higher.

Turning to `O=C(O)c1cc2cc(C#CC34CCC(OCc5c(-c6c(Cl)cncc6Cl)noc5C5CC5)(CC3)CC4)ccc2c(N2CCOCC2)n1` [Example 555], the response was half-maximal at 87 nM (EC50).

In the case of `COCCCOc1cc(C(=O)O)cc2ccc(C34CCC(OCc5c(-c6c(Cl)cncc6Cl)noc5C5CC5)(CC3)CC4)nc12` [Example 556], the response was half-maximal at 30 nM (EC50).

With `O=C(O)c1cc2ccc(C#CC34CCC(OCc5c(-c6c(Cl)cncc6Cl)noc5C5CC5)(CC3)CC4)cc2c(N2CCC(O)C2)n1` (stereo not shown) [Example 557], the EC50 came to 188 nM. Against the preceding molecule, the EC50 is about 6.3-fold higher.

For `O=C(O)c1cc2ccc(C#CC34CCC(OCc5c(-c6c(Cl)cncc6Cl)noc5C5CC5)(CC3)CC4)cc2c(N2CCC(O)CC2)n1` [Example 558], the concentration giving a half-maximal response (EC50) was determined as 20 nM.

`O=C(O)c1cc2ccc(C#CC34CCC(OCc5c(-c6c(Cl)cncc6Cl)noc5C5CC5)(CC3)CC4)cc2c(N2CCC2)n1` [Example 559] yielded an EC50 of 20 nM. That is a double-digit nanomolar value.

In turn, `O=C(O)c1cc(OC2CCOC2)c2nc(C34CCC(OCc5c(-c6c(Cl)cncc6Cl)noc5C5CC5)(CC3)CC4)ccc2c1` (stereo not shown) [Example 560] registered a concentration for a half-maximal effect (EC50) of 286 nM.

Take `O=C(O)COc1cc(C#CC23CCC(OCc4c(-c5c(Cl)cncc5Cl)noc4C4CC4)(CC2)CC3)ccn1` [Example 561]: the response was half-maximal at 779 nM (EC50).

Regarding `O=C(O)c1cnc(N2CCC2)c(C#CC23CCC(OCc4c(-c5c(Cl)cncc5Cl)noc4C4CC4)(CC2)CC3)c1` [Example 562], a half-maximal effect (EC50) was put at 21 nM.

Consider `COc1ncc(C(=O)O)cc1C#CC12CCC(OCc3c(-c4c(Cl)cncc4Cl)noc3C3CC3)(CC1)CC2` [Example 563], for which the EC50 was found to be 16 nM.

`O=C(O)CCc1ccc(C#CC23CCC(OCc4c(-c5c(Cl)cncc5Cl)noc4C4CC4)(CC2)CC3)cc1` [Example 564] registered an EC50 of 175 nM.

`O=C(O)Cc1ccc(C#CC23CCC(OCc4c(-c5c(Cl)cncc5Cl)noc4C4CC4)(CC2)CC3)c(C(F)(F)F)c1` [Example 565] had an EC50 of 115 nM.

As to `O=C(O)COCc1ccc(C#CC23CCC(OCc4c(-c5c(Cl)cncc5Cl)noc4C4CC4)(CC2)CC3)cc1` [Example 566], a half-maximal effect (EC50) was put at 194 nM. Against the preceding molecule, the EC50 is about 1.7-fold higher.

With `O=C(O)Cc1ccc(C#CC23CCC(OCc4c(-c5c(Cl)cncc5Cl)noc4C4CC4)(CC2)CC3)cc1F` [Example 567], the EC50 was 121 nM.

Consider `CN1CCN(c2ncc(C(=O)O)cc2C#CC23CCC(OCc4c(-c5c(Cl)cncc5Cl)noc4C4CC4)(CC2)CC3)CC1` [Example 568], for which the 50% effective concentration (EC50) was determined as 524 nM. This EC50 is about 4.3-fold higher than that of the molecule before.

`O=C(O)COCc1ccc(C#CC23CCC(OCc4c(-c5c(Cl)cncc5Cl)noc4C4CC4)(CC2)CC3)nc1` [Example 569] came in with a 50% effective concentration (EC50) of 1360 nM.

With `CN1CCN(c2nc(C(=O)O)cc3cc(C#CC45CCC(OCc6c(-c7c(Cl)cncc7Cl)noc6C6CC6)(CC4)CC5)ccc23)CC1` [Example 570], the 50% effective concentration (EC50) amounted to 201 nM.

In turn, `O=C(O)COCc1ccc(C#CC23CCC(OCc4c(-c5c(Cl)cncc5Cl)noc4C4CC4)(CC2)CC3)cn1` [Example 571] gave a concentration for a half-maximal effect (EC50) of 272 nM.

For `CN(C)C1CN(c2nc(C(=O)O)cc3ccc(C#CC45CCC(OCc6c(-c7c(Cl)cncc7Cl)noc6C6CC6)(CC4)CC5)cc23)C1` [Example 572], the midpoint of the response, the EC50, lay at 61 nM.

Take `O=C(O)c1cc2ccc(C#CC34CCC(OCc5c(-c6c(Cl)cncc6Cl)noc5C5CC5)(CC3)CC4)cc2c(N2CCNCC2)n1` [Example 573]: the half-maximal effective concentration (EC50) came out at 1630 nM.

For `O=C(O)c1cc2ccc(C#CC34CCC(OCc5c(-c6c(Cl)cncc6Cl)noc5C5CC5)(CC3)CC4)cc2c(OCCN2CCCC2)n1` [Example 574], the EC50 was determined as 1370 nM.

With `CCOc1nc(C(=O)O)cc2ccc(OCC34CCC(OCc5c(-c6c(Cl)cncc6Cl)noc5C5CC5)(CC3)CC4)cc12` [Example 575], the EC50 is 18 nM.

`Cc1nc(NCC23CCC(OCc4c(-c5c(Cl)cccc5Cl)noc4C4CC4)(CC2)CC3)sc1CC(=O)O` [Example 577] yielded an EC50 of 860 nM. This EC50 lies about 48-fold higher than the previous one.

Consider `O=C(O)c1cn2c(n1)CN(CC13CCC(OCc4c(-c5c(Cl)cccc5Cl)noc4C4CC4)(CC1)CC3)CC2` [Example 578], for which the half-maximal effective concentration (EC50) was 903 nM. This EC50 and that of the molecule before are within 1.5-fold of each other.

Molecule `O=C(O)c1ccc(NCC23CCC(OCc4c(-c5c(Cl)cccc5Cl)noc4C4CC4)(CC2)CC3)nc1` [Example 579] came in with an EC50 of 70 nM. This EC50 lies about 13-fold lower than the previous one.

`O=C(O)c1cncc(NCC23CCC(OCc4c(-c5c(Cl)cccc5Cl)noc4C4CC4)(CC2)CC3)c1` [Example 580]: the response was half-maximal at 543 nM (EC50).

`Cn1nc(NCC23CCC(OCc4c(-c5c(Cl)cccc5Cl)noc4C4CC4)(CC2)CC3)cc1C(=O)O` [Example 581]: the EC50 turned out to be 265 nM.

`COc1ncc(-c2noc(C34CCC(OCc5c(-c6c(Cl)cncc6Cl)noc5C5CC5)(CC3)CC4)n2)cc1C(=O)O` [Example 585] registered an EC50 of 114 nM.

`CC(C)Oc1cc(C(=O)O)nc2ccc(CCC34CCC(OCc5c(-c6c(Cl)cncc6Cl)noc5C5CC5)(CC3)CC4)cc12` [Example 586] gave an EC50 of 30 nM.

`O=C(O)Cc1ccc(/C=C/C23CCC(OCc4c(-c5c(Cl)cncc5Cl)noc4C4CC4)(CC2)CC3)cc1` [Example 587]: the EC50 is 173 nM.

`O=C(O)c1ccc2cc(/C=C/C34CCC(OCc5c(-c6c(Cl)cncc6Cl)noc5C5CC5)(CC3)CC4)ccc2n1` [Example 588]: a half-maximal response (EC50) required 88 nM.

Take `O=C(O)c1cc(OC2CCCC2)c2cc(/C=C/C34CCC(OCc5c(-c6c(Cl)cncc6Cl)noc5C5CC5)(CC3)CC4)ccc2n1` [Example 589]: a half-maximal effect (EC50) was put at 17 nM.

Take `COc1nc(C(=O)O)nc2ccc(/C=C/C34CCC(OCc5c(-c6c(Cl)cncc6Cl)noc5C5CC5)(CC3)CC4)cc12` [Example 590]: a half-maximal response (EC50) required 944 nM.

With `CC(C)Oc1cc(C(=O)O)nc2ccc(/C=C/C34CCC(OCc5c(-c6c(Cl)cncc6Cl)noc5C5CC5)(CC3)CC4)cc12` [Example 591], the concentration giving a half-maximal response (EC50) stood at 16 nM.

As to `O=C(O)c1cnc2cc(/C=C/C34CCC(OCc5c(-c6c(Cl)cncc6Cl)noc5C5CC5)(CC3)CC4)ccn12` [Example 592], the EC50 stood at 194 nM. Against the preceding molecule, the EC50 is about 12-fold higher.

`O=C(O)c1cnc2ccc(/C=C/C34CCC(OCc5c(-c6c(Cl)cncc6Cl)noc5C5CC5)(CC3)CC4)cn12` [Example 593] showed a concentration giving a half-maximal response (EC50) of 1130 nM.

`O=C(O)Cc1ccc(/C=C/C23CCC(OCc4c(-c5c(Cl)cncc5Cl)noc4C4CC4)(CC2)CC3)cc1F` [Example 594] yielded an EC50 of 153 nM. This EC50 is about 7.4-fold lower than that of the molecule before.

`Cn1c(C(=O)O)cc2ccc(/C=C/C34CCC(OCc5c(-c6c(Cl)cncc6Cl)noc5C5CC5)(CC3)CC4)cc21` [Example 595] returned an EC50 of 49 nM.
